Data taken from the supplement of paper PMC10307832.

Experiments:
Assay in all cases: relative viability (nuclei count vs DMSO), 5 days (fraction); higher = more cells survive
Idelalisib + Lapatinib = compound: CC[C@H](Nc1ncnc2[nH]cnc12)c1nc2cccc(F)c2c(=O)n1-c1ccccc1 [Idelalisib] + CS(=O)(=O)CCNCc1ccc(-c2ccc3ncnc(Nc4ccc(OCc5cccc(F)c5)c(Cl)c4)c3c2)o1 [Lapatinib] (partner 2 µM)
Outline: (§1)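 Lung cancer cell lines, seeded in 1536-well plates, were treated the following day by pin tool with a single drug or with five library-drug doses (not always all listed) in √10 steps on top of a fixed anchor-drug dose. Cells were fixed and nuclei stained in one step after 5 days, and nuclei were counted. Relative viability is the nuclei count for treated wells divided by that for vehicle wells, reported as medians of duplicate plates.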

Pemetrexed + Dasatinib = compound: Nc1nc2[nH]cc(CCc3ccc(C(=O)N[C@@H](CCC(=O)O)C(=O)O)cc3)c2c(=O)[nH]1 [Pemetrexed] + Cc1nc(Nc2ncc(C(=O)Nc3c(C)cccc3Cl)s2)cc(N2CCN(CCO)CC2)n1 [Dasatinib] (partner 0.075 µM)
Outline: as §1

Idelalisib + Alpelisib = compound: CC[C@H](Nc1ncnc2[nH]cnc12)c1nc2cccc(F)c2c(=O)n1-c1ccccc1 [Idelalisib] + Cc1nc(NC(=O)N2CCC[C@H]2C(N)=O)sc1-c1ccnc(C(C)(C)C(F)(F)F)c1 [Alpelisib] (partner 2 µM)
Outline: as §1

Pemetrexed + Foretinib = compound: Nc1nc2[nH]cc(CCc3ccc(C(=O)N[C@@H](CCC(=O)O)C(=O)O)cc3)c2c(=O)[nH]1 [Pemetrexed] + COc1cc2c(Oc3ccc(NC(=O)C4(C(=O)Nc5ccc(F)cc5)CC4)cc3F)ccnc2cc1OCCCN1CCOCC1 [Foretinib] (partner 0.25 µM)
Outline: as §1

Cell Line | relative viability (Idelalisib + Lapatinib; first compound 0.04 µM) | relative viability (Idelalisib + Lapatinib; first compound 0.1265 µM) | relative viability (Idelalisib + Lapatinib; first compound 0.4 µM) | relative viability (Idelalisib + Lapatinib; first compound 1.265 µM) | relative viability (Idelalisib + Lapatinib; first compound 4 µM) | relative viability (Pemetrexed + Dasatinib; first compound 0.002 µM) | relative viability (Pemetrexed + Dasatinib; first compound 0.006325 µM) | relative viability (Pemetrexed + Dasatinib; first compound 0.02 µM) | relative viability (Pemetrexed + Dasatinib; first compound 0.06325 µM) | relative viability (Pemetrexed + Dasatinib; first compound 0.2 µM) | relative viability (Idelalisib + Alpelisib; first compound 0.04 µM) | relative viability (Idelalisib + Alpelisib; first compound 0.1265 µM) | relative viability (Idelalisib + Alpelisib; first compound 0.4 µM) | relative viability (Idelalisib + Alpelisib; first compound 1.265 µM) | relative viability (Idelalisib + Alpelisib; first compound 4 µM) | relative viability (Pemetrexed + Foretinib; first compound 0.002 µM) | relative viability (Pemetrexed + Foretinib; first compound 0.006325 µM) | relative viability (Pemetrexed + Foretinib; first compound 0.02 µM) | relative viability (Pemetrexed + Foretinib; first compound 0.06325 µM) | relative viability (Pemetrexed + Foretinib; first compound 0.2 µM)
H3255 | 0.297 | 0.283 | 0.258 | 0.233 | 0.203 | 0.236 | 0.403 | 0.429 | 0.362 | 0.29 | 0.652 | 0.683 | 0.591 | 0.518 | 0.607 | 0.608 | 0.924 | 1.07 | 0.943 | 0.741
HARA | 0.891 | 0.982 | 0.651 | 0.844 | 0.656 | 0.231 | 0.237 | 0.327 | 0.2 | 0.162 | 1.03 | 0.843 | 0.855 | 0.754 | 0.751 | 0.856 | 0.87 | 1 | 0.846 | 0.393
HCC-15 | 0.828 | 0.847 | 0.818 | 0.983 | 0.894 | 0.661 | 0.609 | 0.619 | 0.31 | 0.148 | 1.07 | 0.884 | 0.794 | 0.912 | 0.83 | 0.987 | 0.987 | 1.06 | 0.645 | 0.219
HCC-44 | 1.02 | 1.01 | 1 | 1.07 | 1.14 | – | – | – | – | – | 0.831 | 0.812 | 0.602 | 0.577 | 0.638 | – | – | – | – | –
HCC-78 | 0.709 | 0.81 | 0.577 | 0.916 | 0.754 | 0.305 | 0.453 | 0.363 | 0.241 | 0.246 | 0.269 | 0.291 | 0.246 | 0.287 | 0.207 | 0.447 | 0.541 | 0.54 | 0.319 | 0.298
HCC-366 | 1.01 | 1.02 | 0.999 | 1.03 | 0.987 | 0.574 | 0.613 | 0.683 | 0.71 | 0.527 | 0.429 | 0.4 | 0.28 | 0.245 | 0.183 | 0.799 | 0.888 | 0.963 | 0.863 | 0.901
HCC-827 | 0.225 | 0.191 | 0.176 | 0.178 | 0.157 | 0.369 | 0.287 | 0.349 | 0.362 | 0.339 | 0.977 | 0.968 | 0.92 | 0.894 | 0.506 | 0.903 | 1.03 | 1.03 | 1.01 | 0.916
IA-LM | 0.641 | 0.733 | 0.958 | 1.24 | 0.816 | – | – | – | – | – | 0.787 | 0.754 | 0.884 | 0.72 | 0.84 | 1.05 | 1.1 | 1.05 | 1.14 | 0.829
LCLC-103H | – | – | – | – | – | 0.43 | 0.508 | 0.55 | 0.436 | 0.489 | 1 | 0.914 | 0.744 | 0.868 | 0.926 | 0.719 | 0.666 | 0.833 | 0.725 | 0.802
NCI-H441 | – | – | – | – | – | 0.429 | 0.573 | 0.556 | 0.392 | 0.273 | 0.987 | 0.455 | – | 0.839 | 0.611 | 1.02 | 0.926 | 1.08 | 0.741 | 0.438
NCI-H522 | – | – | – | – | – | 0.881 | 0.822 | 0.967 | 0.848 | 0.933 | – | – | – | – | – | – | – | – | – | –
NCI-H1299 | 0.927 | 0.977 | 0.943 | 1.09 | 1.02 | – | – | – | – | – | 1.02 | 1.03 | 1.02 | 1.03 | 1.15 | 1.08 | 1.15 | 1.12 | 1.09 | 0.595
NCI-H1623 | – | – | – | – | – | 0.511 | 0.539 | 0.458 | 0.517 | 0.509 | – | – | – | – | – | 0.794 | 0.831 | 0.861 | 0.848 | 0.769
NCI-H1650 | 0.888 | 0.806 | 0.762 | 0.775 | 0.561 | 0.42 | 0.32 | 0.326 | 0.235 | 0.23 | – | – | – | – | – | 0.985 | 0.988 | 1.17 | 0.888 | 0.402
NCI-H1703 | 1.53 | 1.03 | 0.961 | 1.29 | 0.618 | – | – | – | – | – | 0.37 | 0.304 | 0.273 | 0.272 | 0.207 | 0.304 | 0.283 | 0.415 | 0.345 | 0.369
NCI-H1792 | 0.465 | 0.942 | 0.903 | 0.878 | 0.918 | 0.782 | 0.789 | 0.938 | 0.747 | 0.81 | 0.315 | 0.662 | 0.665 | 0.577 | 0.581 | – | – | – | – | –
NCI-H2342 | – | – | – | – | – | 0.257 | 0.322 | 0.351 | 0.325 | 0.321 | – | – | – | – | – | 0.997 | 1.08 | 0.94 | 1.05 | 0.915
SW 900 | – | – | – | – | – | 0.637 | 0.602 | 0.657 | 0.449 | 0.477 | – | – | – | – | – | 0.908 | 0.77 | 0.874 | 0.688 | 0.588
